Laboratory results reported in patent publication US8188102B2, “Amide derivative for inhibiting the growth of cancer cells” (Hanmi Holdings Co., Ltd., priority 2007, dated 2012).

How the values were obtained:
[1] = tested on: H1975 lung cancer cell line; test: Cancer cell growth inhibition, H1975 (celltiter); settings: Homo sapiens, NCI-H1975, 48 h, read-out: IC50 (nM) H1975
Method: The medium was removed from each well of the 96-well plate.
In case of H1975, the cells were diluted with a culture medium to a concentration of 50,000 cells/ml. 100 μl of the diluted cell solution was added to each well of a 96-well plate, and, after 1 day, was washed with a mixture of RPMI, 0.1% FBS and 1% penicillin-streptomycin (PS), followed by replacement of the medium. The plate was allowed to be kept overnight and be treated to various concentrations under the same medium condition for 48 hrs. Similarly to an MTT assay, 15 μl of a celltiter one shot solution (Promega) was added to each well, which was incubated for 2 to 3 hrs, and, then, the absorbance at 490 nm was determined.

EGFR T790M kinase = EGFR T790M kinase (Homo sapiens, UniProt P00533, T790M); test: Inhibition of EGFR mutant enzyme (T790M); settings: read-out: IC50 (nM) T790M; EGFR T790M kinase
Sequence of EGFR T790M kinase (P00533 25-1210 T790M): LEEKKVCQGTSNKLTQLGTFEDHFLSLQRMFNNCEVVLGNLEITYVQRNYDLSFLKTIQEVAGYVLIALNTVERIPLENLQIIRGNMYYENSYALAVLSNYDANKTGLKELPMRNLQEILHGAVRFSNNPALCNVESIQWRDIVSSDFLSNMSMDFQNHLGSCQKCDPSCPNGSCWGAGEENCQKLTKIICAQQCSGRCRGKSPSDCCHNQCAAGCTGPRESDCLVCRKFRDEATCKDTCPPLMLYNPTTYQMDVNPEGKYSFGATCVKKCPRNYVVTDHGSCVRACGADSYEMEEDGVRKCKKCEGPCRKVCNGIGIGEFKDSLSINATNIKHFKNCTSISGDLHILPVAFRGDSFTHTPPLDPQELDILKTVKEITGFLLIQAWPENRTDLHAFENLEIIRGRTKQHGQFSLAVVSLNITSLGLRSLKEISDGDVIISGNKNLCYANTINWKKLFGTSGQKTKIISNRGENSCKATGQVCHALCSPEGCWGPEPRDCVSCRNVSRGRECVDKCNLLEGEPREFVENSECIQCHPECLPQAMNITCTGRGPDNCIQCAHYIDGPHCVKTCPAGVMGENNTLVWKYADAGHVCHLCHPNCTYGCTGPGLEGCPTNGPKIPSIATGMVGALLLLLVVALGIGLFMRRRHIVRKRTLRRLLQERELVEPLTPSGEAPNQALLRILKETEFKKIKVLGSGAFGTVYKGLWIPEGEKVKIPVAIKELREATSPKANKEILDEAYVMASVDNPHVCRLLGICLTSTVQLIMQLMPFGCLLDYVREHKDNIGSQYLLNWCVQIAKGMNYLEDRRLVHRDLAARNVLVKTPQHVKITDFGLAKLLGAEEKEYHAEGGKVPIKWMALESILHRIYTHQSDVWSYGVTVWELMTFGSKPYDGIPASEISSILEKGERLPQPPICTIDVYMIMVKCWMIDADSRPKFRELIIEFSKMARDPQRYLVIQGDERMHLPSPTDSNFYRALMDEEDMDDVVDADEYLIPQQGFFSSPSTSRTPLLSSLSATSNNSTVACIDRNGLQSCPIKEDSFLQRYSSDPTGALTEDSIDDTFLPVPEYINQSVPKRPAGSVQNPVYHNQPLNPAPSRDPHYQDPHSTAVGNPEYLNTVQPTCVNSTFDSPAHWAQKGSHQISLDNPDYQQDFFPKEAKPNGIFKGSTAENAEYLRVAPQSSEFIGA

[2] = tested on: A431 skin cancer cell line; test: Cancer cell growth inhibition, A431 (SRB); settings: Homo sapiens, A-431, 72 h, read-out: ID50 (nM) A431
[3] = tested on: SK-Br3 breast cancer cell line; test: Cancer cell growth inhibition, SK-Br3 (SRB); settings: Homo sapiens, SK-BR-3, 72 h, read-out: ID50 (nM) SK-Br3
[4] = tested on: SW-620 colon/rectal cancer cell line; test: Cancer cell growth inhibition, SW-620 (SRB); settings: Homo sapiens, SW-620, 72 h, read-out: IC50 (nM) SW-620

IC50 [2] [nM] | IC50 [3] [nM] | IC50 [4] [nM] | SMILES | IC50 [1] [nM] | IC50 (EGFR T790M kinase) [nM]
0.8 | 1.1 | > 5000 | C=CC(=O)N1CC[C@@H](Oc2cc3c(Nc4ccc(Cl)c(Cl)c4F)ncnc3cc2OC)C[C@@H]1C(N)=O [Example 139, (2R,4R)-1-acryloyl-4-(4-(3,4-dichloro-2-fluorophenylamino)-7-methoxyquinazolin-6-yloxy)piperidin-2-carboxamide] | 1.1 | –
80 | 40 | > 5000 | CS(=O)(=O)CCNCc1ccc(-c2ccc3ncnc(Nc4ccc(OCc5cccc(F)c5)c(Cl)c4)c3c2)o1 [Lapatinib, reference compound] | – | –
17 | 2 | > 5000 | C=CC(=O)N1CCC(Oc2cc3c(Nc4ccc(F)c(Cl)c4)ncnc3cc2OC)CC1 [Example 57, 1-(4-(4-(3-chloro-4-fluorophenylamino)-7-methoxyquinazolin-6-yloxy)piperidin-1-yl)pro-2-pen-1-one] | 16 | –
28 | 40 | – | CCN(CC)C/C=C/C(=O)N1CC[C@H](Oc2cc3c(Nc4ccc(F)c(Cl)c4F)ncnc3cc2OC)C1 [Example 93, (E)-1-((3S)-3-(4-(3-chloro-2,4-difluorophenylamino)-7-methoxyquinazolin-6-yloxy)pyrrolidin-1-yl)-4-(diethylamino)but-2-en-1-one] | – | –
179 | 91 | – | C=CC(=O)N1CCC(Oc2cc3c(Nc4cc(Cl)c(O)c(Cl)c4)ncnc3cc2OC)CC1 [Example 50, 1-(4-(4-(3,5-dichloro-4-hydroxyphenylamino)-7-methoxyquinazolin-6-yloxy)piperidin-1-yl)pro-2-pen-1-one] | – | –
8 | 46 | – | COc1cc2ncnc(Nc3cccc(Cl)c3F)c2cc1O[C@H]1CCN(C(=O)/C=C/CN(C)C)C1 [Example 96, (E)-1-((3S)-3-(4-(3-chloro-2-fluorophenylamino)-7-methoxyquinazolin-6-yloxy)pyrrolidin-1-yl)-4-(dimethylamino)but-2-en-1-one] | – | –
8.3 | 0.5 | – | C=CC(=O)N1CC[C@H](Oc2cc3c(Nc4ccc(F)c(Cl)c4F)ncnc3cc2OC)C[C@H]1C(=O)NCCN1CCOCC1 [Example 132, (2S,4S)-1-acryloyl-4-(4-(3-chloro-2,4-difluorophenylamino)-7-methoxyquinazolin-6-yloxy)-N-(2-morpholinoethyl)piperidin-2-carboxamide] | – | –
2.2 | 2.5 | – | C=CC(=O)N1CC[C@H](Oc2cc3c(Nc4ccc(F)c(Cl)c4F)ncnc3cc2OC)C[C@H]1C(=O)NC [Example 121, (2S,4S)-1-acryloyl-4-(4-(3-chloro-2,4-difluorophenylamino)-7-methoxyquinazolin-6-yloxy)-N-methylpiperidin-2-carboxamide] | – | –

The next lines start with the compound.

SMILES | IC50 [2] [nM] | IC50 [3] [nM] | IC50 [4] [nM] | IC50 [1] [nM] | IC50 (EGFR T790M kinase) [nM]
C=CC(=O)N1CCC(Oc2cc3c(Nc4cccc(C=C)c4)ncnc3cc2OC)CC1 [Example 73, 1-(4-(7-methoxy-4-(3-vinylphenylamino)quinazolin-6-yloxy)piperidin-1-yl)pro-2-pen-1-one] | 1.9 | 1.2 | > 5000 | 27 | 3
C=CC(=O)N1CC[C@H](Oc2cc3c(Nc4ccc(F)c(Cl)c4F)ncnc3cc2OC)C[C@H]1C(=O)NCCN(C)C [Example 130, (2S,4S)-1-acryloyl-4-(4-(3-chloro-2,4-difluorophenylamino)-7-methoxyquinazolin-6-yloxy)-N-(2-(dimethylamino)ethyl)piperidin-2-carboxamide] | 5.7 | 0.9 | > 5000 | 30 | 6.6
C=CC(=O)N1CCC(Oc2cc3c(Nc4cccc(C)c4)ncnc3cc2OC)CC1 [Example 41, 1-(4-(4-(m-toluidino)-7-methoxyquinazolin-6-yloxy)piperidin-1-yl)pro-2-pen-1-one] | 1 | 2 | – | 236 | 9.3
C=CC(=O)N1CC[C@H](Oc2cc3c(Nc4ccc(F)c(Cl)c4F)ncnc3cc2OC)C[C@H]1C(=O)NCCS(C)(=O)=O [Example 129, (2S,4S)-1-acryloyl-4-(4-(3-chloro-2,4-difluorophenylamino)-7-methoxyquinazolin-6-yloxy)-N-(2-(methylsulfonyl)ethyl)piperidin-2-carboxamide] | 2.2 | 0.6 | – | 50.4 | 3
CN(C)C/C=C/C(=O)Nc1cc2c(Nc3ccc(F)c(Cl)c3)ncnc2cc1O[C@H]1CCOC1 [BIBW2992, reference compound] | – | – | 2640 | – | –
COc1cc2ncnc(Nc3cccc(Cl)c3F)c2cc1OC1CCN(C(=O)CO)CC1 [Ex 1*] | 39 | 293 | – | > 1000 | –
C=CC(=O)N1CC[C@H](Oc2cc3c(Nc4ccc(F)c(Cl)c4F)ncnc3cc2OC)C[C@H]1C(=O)NCCO [Example 126, (2S,4S)-1-acryloyl-4-(4-(3-chloro-2,4-difluorophenylamino)-7-methoxyquinazolin-6-yloxy)-N-(2-hydroxyethyl)piperidin-2-carboxamide] | 5.4 | 0.9 | > 5000 | 39 | 1.8
C=CC(=O)N1CCC(Oc2cc3c(Nc4ccc(Br)c(C)c4)ncnc3cc2OC)CC1 [Example 39, 1-(4-(4-(4-bromo-3-methylphenylamino)-7-methoxyquinazolin-6-yloxy)piperidin-1-yl)pro-2-pen-1-one] | 6 | 9 | – | 48 | 7.6
C=CC(=O)N1CC[C@H](Oc2cc3c(Nc4ccc(F)c(Cl)c4F)ncnc3cc2OC)C[C@H]1C(=O)NCCSC [Example 128, (2S,4S)-1-acryloyl-4-(4-(3-chloro-2,4-difluorophenylamino)-7-methoxyquinazolin-6-yloxy)-N-(2-(methylthio)ethyl)piperidin-2-carboxamide] | 2.4 | 5 | > 5000 | 5 | 1.4
COc1cc2ncnc(Nc3ccc(F)c(Cl)c3F)c2cc1OC1CN(C(=O)/C=C\Cl)C1 [Example 32, (Z)-3-chloro-1-(3-(4-(3-chloro-2,4-difluorophenylamino)-7-methoxyquinazolin-6-yloxy)azetidin-1-yl)pro-2-pen-1-one] | 2.4 | 2.2 | – | 19 | –
C=CC(=O)N1CCC(Oc2cc3c(Nc4cccc(C(F)(F)F)c4)ncnc3cc2OC)CC1 [Example 58, 1-(4-(7-methoxy-4-(3-(trifluoromethyl)phenylamino)quinazolin-6-yloxy)piperidin-1-yl)pro-2-pen-1-one] | 58 | 20 | > 5000 | – | 16.2
C=CC(=O)N1CCC(Oc2cc3c(Nc4cccc(Br)c4)ncnc3cc2OC)CC1 [Example 42, 1-(4-(4-(3-bromophenylamino)-7-methoxyquinazolin-6-yloxy)piperidin-1-yl)pro-2-pen-1-one] | 1 | 0.7 | – | 96 | 7.1
C=CC(=O)N1CC[C@H](Oc2cc3c(Nc4ccc(F)c(Cl)c4F)ncnc3cc2OC)C[C@H]1C(=O)NCCOC [Example 127, (2S,4S)-1-acryloyl-4-(4-(3-chloro-2,4-difluorophenylamino)-7-methoxyquinazolin-6-yloxy)-N-(2-methoxyethyl)piperidin-2-carboxamide] | 3.4 | 2.3 | > 5000 | 11 | 3.8
C=CC(=O)N1CC(Oc2cc3c(Nc4ccc(Cl)c(Cl)c4F)ncnc3cc2OC)C1 [Example 24, 1-(3-(4-(3,4-dichloro-2-fluorophenylamino)-7-methoxyquinazolin-6-yloxy)azetidin-1-yl)pro-2-pen-1-one] | – | 0.6 | > 5000 | – | –
C=C(NC(C)=O)C(=O)N1CC(Oc2cc3c(Nc4ccc(F)c(Cl)c4F)ncnc3cc2OC)C1 [Example 31, N-(3-(3-(4-(3-chloro-2,4-difluorophenylamino)-7-methoxyquinazolin-6-yloxy)azetidin-1-yl)-3-oxopro-1-en-2-yl)acetamide] | 3.1 | 2.5 | – | 50 | –
C=CC(=O)N1CC(Oc2cc3c(Nc4ccc(F)c(Cl)c4)ncnc3cc2OC)C1 [Example 25, 1-(3-(4-(3-chloro-4-fluorophenylamino)-7-methoxyquinazolin-6-yloxy)azetidin-1-yl)pro-2-pen-1-one] | – | 0.4 | > 5000 | – | –
C=CC(=O)N1CCC(Oc2cc3c(Nc4cccc(Cl)c4)ncnc3cc2OC)CC1 [Example 43, 1-(4-(4-(3-chlorophenylamino)-7-methoxyquinazolin-6-yloxy)piperidin-1-yl)pro-2-pen-1-one] | – | 0.7 | > 5000 | – | –
C=CC(=O)N1CC[C@H](Oc2cc3c(Nc4ccc(Cl)c(Cl)c4F)ncnc3cc2OC)C1 [Example 8, 1-((3S)-3-(4-(3,4-dichloro-2-fluorophenylamino)-7-methoxyquinazolin-6-yloxy)pyrrolidin-1-yl)pro-2-pen-1-one] | – | – | > 5000 | – | –
C#Cc1cccc(Nc2ncnc3cc(OC)c(OC4CCN(C(=O)C=C)CC4)cc23)c1 [Example 37, 1-(4-(4-(3-ethynylphenylamino)-7-methoxyquinazolin-6-yloxy)piperidin-1-yl)pro-2-pen-1-one] | 52 | 79 | – | – | –
C=C(C)C(=O)N1CC(Oc2cc3c(Nc4ccc(F)c(Cl)c4F)ncnc3cc2OC)C1 [Example 29, 1-(3-(4-(3-chloro-2,4-difluorophenylamino)-7-methoxyquinazolin-6-yloxy)azetidin-1-yl)-2-methylpro-2-pen-1-one] | 29 | 19 | – | – | –
